Assay results as given in patent US10738056B2 (Aduro BioTech, Inc., priority 2017, dated 2020).

Legend:
[1] = molecular target: Human cGAS amino acids 155-522 (Homo sapiens (Human), UniProt Q8N884); assay: cGAS biochemical activity assay (ATP remaining, Kinase-Glo Max luminescence); settings: human cGAS 155-522, ATP remaining (Kinase-Glo Max); read-out: cGAS IC50
[2] = tested on: cGAS/STING pathway in THP1 cells; assay: THP1 cell-based cGAS/STING pathway activity assay (IRF-3-linked luciferase reporter); settings: Homo sapiens, THP-1
Procedure, shortened: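 THP1 cells carrying an IRF-3-driven luciferase reporter were read across a range of compound concentrations, and IC50 values were derived from these concentration responses; the assay upper limit was 100 μM.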

Sequence of Human cGAS amino acids 155-522 (Q8N884 157-522): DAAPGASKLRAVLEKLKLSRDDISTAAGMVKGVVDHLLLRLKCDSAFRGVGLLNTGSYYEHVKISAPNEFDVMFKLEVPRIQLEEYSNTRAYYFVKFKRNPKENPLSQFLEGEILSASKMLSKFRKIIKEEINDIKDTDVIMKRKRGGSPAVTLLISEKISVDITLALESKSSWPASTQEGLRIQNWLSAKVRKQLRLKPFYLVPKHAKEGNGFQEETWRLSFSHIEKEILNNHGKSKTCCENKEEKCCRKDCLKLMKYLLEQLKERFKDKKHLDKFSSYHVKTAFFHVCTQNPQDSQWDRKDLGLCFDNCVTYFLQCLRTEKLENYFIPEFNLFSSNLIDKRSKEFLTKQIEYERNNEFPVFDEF

SMILES	IC50 [1] [µM]	IC50 [2] [µM]
COc1cccc2oc(-c3c(N4CCCC(C(=O)O)C4)[nH]c4c(-c5ccccc5)c(C(F)(F)F)nn4c3=O)nc12 (centres unmarked) [Compound C1257, 1-(6-(4-methoxybenzo[d]oxazol-2-yl)-7-oxo-3-phenyl-2-(trifluoromethyl)-4,7-dihydropyrazolo[1,5-a]pyrimidin-5-yl)piperidine-3-carboxylic acid]	< 20	> 100
COc1cccc(S(=O)(=O)NC(=O)c2c(C)[nH]c3c(-c4ccccc4)c(C(F)(F)F)nn3c2=O)c1 [Compound A1125, N-((3-methoxyphenyl)sulfonyl)-5-methyl-7-oxo-3-phenyl-2-(trifluoromethyl)-4,7-dihydropyrazolo[1,5-a]pyrimidine-6-carboxamide]	< 20	20 to 100
COc1cc([N+](C)(C)C)cc2oc(-c3c(C)[nH]c4c(-c5ccccc5)c(C(F)(F)F)nn4c3=O)nc12 [Compound C1163, 4-methoxy-N,N,N-trimethyl-2-(5-methyl-7-oxo-3-phenyl-2-(trifluoromethyl)-4,7-dihydropyrazolo[1,5-a]pyrimidin-6-yl)benzo[d]oxazol-6-aminium]	< 20	> 100
COc1ccccc1NC(=O)c1c(C)[nH]c2c(-c3ccccc3)c(C(F)(F)F)nn2c1=O [Compound A1031, N-(2-methoxyphenyl)-5-methyl-7-oxo-3-phenyl-2-(trifluoromethyl)-4,7-dihydropyrazolo[1,5-a]pyrimidine-6-carboxamide]	< 20	> 100
COc1cccc2oc(-c3c(COCC4CNC(=O)O4)[nH]c4c(-c5ccccc5)c(C(F)(F)F)nn4c3=O)nc12 (centres unmarked) [Compound C1177, 5-(((6-(4-methoxybenzo[d]oxazol-2-yl)-7-oxo-3-phenyl-2-(trifluoromethyl)-4,7-dihydropyrazolo[1,5-a]pyrimidin-5-yl)methoxy)methyl)oxazolidin-2-one]	< 20	20 to 100
COc1cc(N(C)C)cc2oc(-c3c(C)[nH]c4c(-c5ccccc5)c(C(F)(F)F)nn4c3=O)nc12 [Compound C1162, 6-(6-(dimethylamino)-4-methoxybenzo[d]oxazol-2-yl)-5-methyl-3-phenyl-2-(trifluoromethyl)pyrazolo[1,5-a]pyrimidin-7(4H)-one]	< 20	< 20
COc1cccc(NC(=O)c2c(C)[nH]c3c(-c4ccccc4)c(C(F)(F)F)nn3c2=O)c1Cl [Compound A1135, N-(2-chloro-3-methoxyphenyl)-5-methyl-7-oxo-3-phenyl-2-(trifluoromethyl)-4,7-dihydropyrazolo[1,5-a]pyrimidine-6-carboxamide]	< 20	< 20
Cc1[nH]c2c(-c3ccccc3)c(C(F)(F)F)nn2c(=O)c1-c1ncc(C2CCCOC2)o1 (centres unmarked) [Compound C1027, 5-methyl-3-phenyl-6-(5-(tetrahydro-2H-pyran-3-yl)oxazol-2-yl)-2-(trifluoromethyl)pyrazolo[1,5-a]pyrimidin-7(4H)-one]	< 20	20 to 100
C=Cc1nn2c(=O)c(-c3nc4c(OC)cccc4o3)c(C)[nH]c2c1-c1ccccc1 [Compound C1241, 6-(4-methoxybenzo[d]oxazol-2-yl)-5-methyl-3-phenyl-2-vinylpyrazolo[1,5-a]pyrimidin-7(4H)-one]	< 20	< 20
COc1ccc(CO)c2oc(-c3c(C)[nH]c4c(-c5ccccc5)c(C(F)(F)F)nn4c3=O)nc12 [Compound C1224, 6-(7-(hydroxymethyl)-4-methoxybenzo[d]oxazol-2-yl)-5-methyl-3-phenyl-2-(trifluoromethyl)pyrazolo[1,5-a]pyrimidin-7(4H)-one]	< 20	> 100
CO[C@](c1ccccc1)(c1nnc(-c2c(C)[nH]c3c(-c4ccccc4)c(C(F)(F)F)nn3c2=O)o1)C(F)(F)F [Compound D1029, (R)-5-methyl-3-phenyl-6-(5-(2,2,2-trifluoro-1-methoxy-1-phenylethyl)-1,3,4-oxadiazol-2-yl)-2-(trifluoromethyl)pyrazolo[1,5-a]pyrimidin-7(4H)-one]	< 20	> 100
Cc1[nH]c2c(-c3ccccc3)c(C(F)(F)F)nn2c(=O)c1C(=O)Nc1cccc(OC(C)C)c1 [Compound A1066, N-(3-isopropoxyphenyl)-5-methyl-7-oxo-3-phenyl-2-(trifluoromethyl)-4,7-dihydropyrazolo[1,5-a]pyrimidine-6-carboxamide]	< 20	< 20
Cc1[nH]c2c(-c3ccccc3)c(C(F)(F)F)nn2c(=O)c1-c1nnc(C2(C)CCCOC2)o1 (centres unmarked) [Compound D1051, 5-methyl-6-(5-(3-methyltetrahydro-2H-pyran-3-yl)-1,3,4-oxadiazol-2-yl)-3-phenyl-2-(trifluoromethyl)pyrazolo[1,5-a]pyrimidin-7(4H)-one]	20 to 250	> 100
CC(=O)N1CCOCC1c1nnc(-c2c(C)[nH]c3c(-c4ccccc4)c(C(F)(F)F)nn3c2=O)o1 (centres unmarked) [Compound D1050, 6-(5-(4-acetylmorpholin-3-yl)-1,3,4-oxadiazol-2-yl)-5-methyl-3-phenyl-2-(trifluoromethyl)pyrazolo[1,5-a]pyrimidin-7(4H)-one]	20 to 250	> 100
Cc1[nH]c2c(-c3ccccc3)c(C(F)(F)F)nn2c(=O)c1-c1ncc(C2CCCC2)o1 [Compound C1010, 6-(5-cyclopentyloxazol-2-yl)-5-methyl-3-phenyl-2-(trifluoromethyl)pyrazolo[1,5-a]pyrimidin-7(4H)-one]	> 250	< 20
Cc1[nH]c2c(-c3ccccc3)c(C#N)nn2c(=O)c1-c1nc2c(N)cccc2o1 [Compound C1223, 6-(4-aminobenzo[d]oxazol-2-yl)-5-methyl-7-oxo-3-phenyl-4,7-dihydropyrazolo[1,5-a]pyrimidine-2-carbonitrile]	< 20	20 to 100
Cc1[nH]c2c(-c3ccccc3)c(C#N)nn2c(=O)c1-c1nc2ccccc2o1 [Compound C1222, 6-(benzo[d]oxazol-2-yl)-5-methyl-7-oxo-3-phenyl-4,7-dihydropyrazolo[1,5-a]pyrimidine-2-carbonitrile]	< 20	20 to 100
Cc1[nH]c2c(-c3ccccc3)c(C(F)(F)F)nn2c(=O)c1-c1nc(CO)c(C2CCCCC2)o1 [Compound C1157, 6-(5-cyclohexyl-4-(hydroxymethyl)oxazol-2-yl)-5-methyl-3-phenyl-2-(trifluoromethyl)pyrazolo[1,5-a]pyrimidin-7(4H)-one]	< 20	< 20
CCc1cccc2oc(-c3c(C)[nH]c4c(-c5ccccc5)c(C(F)(F)F)nn4c3=O)nc12 [Compound C1046, 6-(4-ethylbenzo[d]oxazol-2-yl)-5-methyl-3-phenyl-2-(trifluoromethyl)pyrazolo[1,5-a]pyrimidin-7(4H)-one]	< 20	< 20
Cc1[nH]c2c(-c3ccccc3)c(C(F)(F)F)nn2c(=O)c1-c1nc2c(OCCN)cccc2o1 [Compound C1061, 6-(4-(2-aminoethoxy)benzo[d]oxazol-2-yl)-5-methyl-3-phenyl-2-(trifluoromethyl)pyrazolo[1,5-a]pyrimidin-7(4H)-one]	20 to 250	20 to 100
Cc1[nH]c2c(-c3ccccc3)c(C(F)(F)F)nn2c(=O)c1C(=O)Nc1cccc(C#N)c1 [Compound A1070, N-(3-cyanophenyl)-5-methyl-7-oxo-3-phenyl-2-(trifluoromethyl)-4,7-dihydropyrazolo[1,5-a]pyrimidine-6-carboxamide]	< 20	< 20
Cc1[nH]c2c(-c3ccccc3)c(C(F)(F)F)nn2c(=O)c1C(=O)Nc1ccn(CCO)n1 [Compound A1118, N-(1-(2-hydroxyethyl)-1H-pyrazol-3-yl)-5-methyl-7-oxo-3-phenyl-2-(trifluoromethyl)-4,7-dihydropyrazolo[1,5-a]pyrimidine-6-carboxamide]	20 to 250	> 100
Cc1cc(NC(=O)c2c(C)[nH]c3c(-c4ccccc4)c(C(F)(F)F)nn3c2=O)[nH]n1 [Compound A1081, 5-methyl-N-(3-methyl-1H-pyrazol-5-yl)-7-oxo-3-phenyl-2-(trifluoromethyl)-4,7-dihydropyrazolo[1,5-a]pyrimidine-6-carboxamide]	< 20	20 to 100
Cc1cc(NC(=O)c2c(C)[nH]c3c(-c4ccccc4)c(C(F)(F)F)nn3c2=O)n(C)n1 [Compound A1073, N-(1,3-dimethyl-1H-pyrazol-5-yl)-5-methyl-7-oxo-3-phenyl-2-(trifluoromethyl)-4,7-dihydropyrazolo[1,5-a]pyrimidine-6-carboxamide]	20 to 250	> 100
COc1cccc2nc(-c3c(C)[nH]c4c(-c5ccccc5)c(C(F)(F)F)nn4c3=O)cn12 [Compound C1057, 6-(5-methoxyimidazo[1,2-a]pyridin-2-yl)-5-methyl-3-phenyl-2-(trifluoromethyl)pyrazolo[1,5-a]pyrimidin-7(4H)-one]	< 20	> 100
Cc1[nH]c2c(-c3ccccc3)c(C(F)(F)F)nn2c(=O)c1C(=O)NS(=O)(=O)c1ccccn1 [Compound A1120, 5-methyl-7-oxo-3-phenyl-N-(pyridin-2-ylsulfonyl)-2-(trifluoromethyl)-4,7-dihydropyrazolo[1,5-a]pyrimidine-6-carboxamide]	< 20	> 100
COc1cc(C(C)O)cc2oc(-c3c(C)[nH]c4c(-c5ccccc5)c(C#N)nn4c3=O)nc12 (centres unmarked) [Compound C1240, 6-(6-(1-hydroxyethyl)-4-methoxybenzo[d]oxazol-2-yl)-5-methyl-7-oxo-3-phenyl-4,7-dihydropyrazolo[1,5-a]pyrimidine-2-carbonitrile]	< 20	< 20
COc1cccc2oc(-c3c(C(N)=O)[nH]c4c(-c5ccccc5)c(C(F)(F)F)nn4c3=O)nc12 [Compound C1132, 6-(4-methoxybenzo[d]oxazol-2-yl)-7-oxo-3-phenyl-2-(trifluoromethyl)-4,7-dihydropyrazolo[1,5-a]pyrimidine-5-carboxamide]	< 20	> 100
